Experimental findings from ChEMBL document CHEMBL4311985, “Novel virosecurinine bivalent mimetics as potent reversal agents against P-glycoprotein-mediated multidrug resistance” (Eur J Med Chem, 2019) are described below.

The inhibition is the share of the control response that was lost under treatment.

Format in all cases: cell-based
Series [1] is described as follows: Cytotoxicity against human MCF7/ADM cells assessed as reduction in cell viability at 10 uM measured after 48 hrs by MTT assay.
Series [2] in a line: Cytotoxicity against human HepG2/DOX cells assessed as reduction in cell viability at 10 uM measured after 48 hrs by MTT assay. (In general: Tetrazolium assays rely on reduction of a dye to a coloured formazan, in cell work by metabolically active cells.)
For series [3], the target named is T1, ATP-dependent translocase ABCB1 (Homo sapiens, UniProt P08183). Nature of the series: Reversal of P-gp mediated multidrug resistance in human HepG2/Dox cells assessed as potentiation of doxorubicin-induced cell growth inhibition at 10 uM measured after 48 hrs by MTT assay (reference value: 24%).
T1 sequence (P08183 whole entry): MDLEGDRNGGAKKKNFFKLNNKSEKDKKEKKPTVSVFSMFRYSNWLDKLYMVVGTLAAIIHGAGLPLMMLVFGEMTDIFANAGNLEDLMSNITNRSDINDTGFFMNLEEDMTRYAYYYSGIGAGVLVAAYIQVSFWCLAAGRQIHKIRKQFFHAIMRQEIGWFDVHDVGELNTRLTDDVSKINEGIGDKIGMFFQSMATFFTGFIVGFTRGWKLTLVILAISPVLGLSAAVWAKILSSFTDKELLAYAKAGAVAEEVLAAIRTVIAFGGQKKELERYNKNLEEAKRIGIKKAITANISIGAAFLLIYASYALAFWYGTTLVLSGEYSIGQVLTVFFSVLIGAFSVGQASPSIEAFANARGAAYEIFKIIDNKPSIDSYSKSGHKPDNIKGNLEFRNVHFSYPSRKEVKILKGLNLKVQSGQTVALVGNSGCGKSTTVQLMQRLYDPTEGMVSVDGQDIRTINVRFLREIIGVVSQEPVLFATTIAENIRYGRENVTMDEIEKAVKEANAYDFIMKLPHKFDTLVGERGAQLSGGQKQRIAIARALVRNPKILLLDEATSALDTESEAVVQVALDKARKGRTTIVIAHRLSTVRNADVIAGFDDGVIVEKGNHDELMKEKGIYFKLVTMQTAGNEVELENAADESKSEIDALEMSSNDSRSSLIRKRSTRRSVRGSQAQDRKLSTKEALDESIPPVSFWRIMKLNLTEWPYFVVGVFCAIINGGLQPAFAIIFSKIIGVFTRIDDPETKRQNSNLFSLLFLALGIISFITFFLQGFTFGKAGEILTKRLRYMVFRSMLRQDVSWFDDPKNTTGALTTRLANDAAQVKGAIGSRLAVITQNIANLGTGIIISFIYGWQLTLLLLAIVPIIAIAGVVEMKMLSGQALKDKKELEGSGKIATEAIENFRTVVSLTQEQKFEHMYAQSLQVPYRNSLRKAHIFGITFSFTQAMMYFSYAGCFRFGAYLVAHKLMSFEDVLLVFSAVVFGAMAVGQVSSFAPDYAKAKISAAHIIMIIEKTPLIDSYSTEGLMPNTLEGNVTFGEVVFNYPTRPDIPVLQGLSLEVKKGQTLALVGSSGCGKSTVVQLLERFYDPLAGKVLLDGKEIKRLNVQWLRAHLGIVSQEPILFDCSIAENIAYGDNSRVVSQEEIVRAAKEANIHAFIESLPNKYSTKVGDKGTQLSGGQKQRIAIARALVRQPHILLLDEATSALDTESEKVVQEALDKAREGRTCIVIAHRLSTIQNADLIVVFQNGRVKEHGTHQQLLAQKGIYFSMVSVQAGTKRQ
Series [4] has as its target T1, ATP-dependent translocase ABCB1. Nature of the series: Reversal of P-gp mediated multidrug resistance in human MCF7/ADM cells assessed as potentiation of doxorubicin-induced cell growth inhibition at 10 uM measured after 48 hrs by MTT assay.
For series [5] the target is unchanged. Nature of the series: Reversal of P-gp mediated multidrug resistance in human HepG2/Dox cells assessed as potentiation of doxorubicin-induced cell growth inhibition at 10 uM measured after 48 hrs by MTT assay.

In the case of `CCCN(C(=O)CCCCCC(=O)N(CCC)[C@H]1CC2=CC(=O)O[C@]23C[C@H]1N1CCCC[C@H]13)[C@H]1CC2=CC(=O)O[C@]23C[C@H]1N1CCCC[C@H]13`, the Activity entry in series [1] and in series [2] was “Toxic” in each case.

Regarding `CCCN(C(=O)CCCCCCC(=O)N(CCC)[C@H]1CC2=CC(=O)O[C@@]23C[C@@H]1N1CCCC[C@@H]13)[C@H]1CC2=CC(=O)O[C@@]23C[C@@H]1N1CCCC[C@@H]13`, the inhibition at 10 µM in series [3] came out at 81%. In series [4], the “inhibition (INH)” value is recorded as “Not Active”.

On to `CCCN(C(=O)CCCCCCCCC(=O)N(CCC)[C@H]1CC2=CC(=O)O[C@]23C[C@H]1N1CCCC[C@H]13)[C@H]1CC2=CC(=O)O[C@]23C[C@H]1N1CCCC[C@H]13`, for which the Activity entry in series [1] and in series [2] was “Toxic” in each case. Further, the “inhibition (INH)” value in series [5] and in series [4] was “Active” in each case.

Turning to `CCCN(C(=O)CCCCCCCC(=O)N(CCC)[C@H]1CC2=CC(=O)O[C@]23C[C@H]1N1CCCC[C@H]13)[C@H]1CC2=CC(=O)O[C@]23C[C@H]1N1CCCC[C@H]13`, the Activity entry in series [1] and in series [2] was “Toxic” throughout. Further, the “inhibition (INH)” value in series [5] and in series [4] was “Active” throughout.

For `CCCN(C(=O)CCCCC(=O)N(CCC)[C@H]1CC2=CC(=O)O[C@]23C[C@H]1N1CCCC[C@H]13)[C@H]1CC2=CC(=O)O[C@]23C[C@H]1N1CCCC[C@H]13`, the Activity entry in series [1] and in series [2] was “Toxic” throughout. Also, the “inhibition (INH)” value in series [5] and in series [4] was “Active” in each case.
